One assay has as its system Enterococcus faecium. Description: In vitro antibacterial activity against Enterococcus faecium 02D31P2 VanTeiEry-R strain. It is filed as functional.
Assay [1] deals with Staphylococcus epidermidis. Description: In vitro antibacterial activity against Staphylococcus epidermidis 012GO39 OxaTei-R strain. In kind it is functional.
Assay [2] deals with Staphylococcus aureus. Description: In vitro antibacterial activity against Staphylococcus aureus 011GO76 OfloOxaEry-R strain. It is filed as functional.
For assay [3], the system named is Staphylococcus aureus. Put plainly: In vitro antibacterial activity against Staphylococcus aureus 011HT1 Nov-R strain. In kind it is functional.
Assay [4] concerns Staphylococcus aureus. Description: In vitro antibacterial activity against Staphylococcus aureus 011HT3 strain. It is filed as functional.
The next assay deals with Streptococcus pyogenes. Description: In vitro antibacterial activity against Streptococcus pyogenes O2A1UC1 strain.

≈ marks a conversion by molar mass, not a printed value. A value given as a limit tells only on which side of the number the result lay.

Usually MIC stands for the smallest concentration in the dilution series that meets the test's criterion for growth inhibition. As for `CO[C@@H]1[C@@H](OC(N)=O)[C@@H](O)[C@H](Oc2ccc3c(O)c(NC(=O)c4ccc(O)c(CC=C(C)C)c4)c(=O)oc3c2C)OC1(C)C` [NOVOBIOCIN], the MIC is 0.3 µg/mL (≈ 0.49 µM) against Enterococcus faecium; 0.08 µg/mL (≈ 0.131 µM) in assay [1]; below 0.04 µg/mL in the assay with Staphylococcus aureus [2]; 20 µg/mL (≈ 32.6 µM) with Staphylococcus aureus [3]; below 0.04 µg/mL in the assay with Staphylococcus aureus [4]; 0.15 µg/mL (≈ 0.245 µM) with Streptococcus pyogenes.
As to `CO[C@@H]1[C@@H](OC(=O)c2ccc(C)[nH]2)[C@@H](O)[C@H](Oc2ccc3c(C(=O)O)cc(=O)oc3c2C)O[C@H]1C`, the MIC (in the assay on Enterococcus faecium; in assay [1]; against Staphylococcus aureus [2]; in the assay on Staphylococcus aureus [3]; with Staphylococcus aureus [4]; in the assay with Streptococcus pyogenes) was above 40 µg/mL throughout.
As to `CO[C@@H]1[C@@H](OC(=O)c2ccc(C)[nH]2)[C@@H](O)[C@H](Oc2ccc3c(CC(=O)O)cc(=O)oc3c2C)O[C@H]1C`, the MIC is above 40 µg/mL in the assay on Enterococcus faecium; 10 µg/mL (≈ 19.9 µM) in assay [1]; 40 µg/mL (≈ 79.8 µM) in the assay with Staphylococcus aureus [2]; above 40 µg/mL in the assay with Staphylococcus aureus [3]; 10 µg/mL (≈ 19.9 µM) against Staphylococcus aureus [4]; above 40 µg/mL in the assay with Streptococcus pyogenes.
For the compound `CCCCCCCc1cc(O[C@@H]2O[C@@H](C)[C@H](OC)[C@@H](OC(=O)c3ccc(C)[nH]3)[C@H]2O)c(C)c2oc(=O)c(C(=O)NS(=O)(=O)c3ccccc3)cc12`, the MIC was 2.5 µg/mL (≈ 3.45 µM) against Enterococcus faecium; 0.6 µg/mL (≈ 0.828 µM) in assay [1]; 0.6 µg/mL (≈ 0.828 µM) in the assay with Staphylococcus aureus [2]; 2.5 µg/mL (≈ 3.45 µM) in the assay with Staphylococcus aureus [3]; 0.15 µg/mL (≈ 0.207 µM) against Staphylococcus aureus [4]; 0.3 µg/mL (≈ 0.414 µM) with Streptococcus pyogenes.
For `CO[C@@H]1[C@@H](OC(=O)c2ccc(C)[nH]2)[C@@H](O)[C@H](Oc2ccc3c(CC(=O)O)cc(=O)oc3c2C)OC1(C)C`, the minimum inhibitory concentration (MIC) was above 40 µg/mL with Enterococcus faecium; 2.5 µg/mL (≈ 4.85 µM) in assay [1]; 5 µg/mL (≈ 9.7 µM) with Staphylococcus aureus [2]; above 40 µg/mL against Staphylococcus aureus [3]; 2.5 µg/mL (≈ 4.85 µM) in the assay with Staphylococcus aureus [4]; 10 µg/mL (≈ 19.4 µM) in the assay with Streptococcus pyogenes.
As to `COC(=O)Cc1cc(=O)oc2cc(O[C@@H]3O[C@@H](C)[C@H](OC)[C@@H](OC(=O)c4ccc(C)[nH]4)[C@H]3O)ccc12`, the MIC (in the assay on Enterococcus faecium; in assay [1]; in the assay on Staphylococcus aureus [2]; with Staphylococcus aureus [3]; against Staphylococcus aureus [4]; in the assay on Streptococcus pyogenes) was above 40 µg/mL throughout.
As for `CCCCCc1cc(O[C@@H]2OC(C)(C)[C@H](OC)[C@@H](OC(=O)c3ccc(C)[nH]3)[C@H]2O)c(C)c2oc(=O)c(C(=O)O)cc12`, the MIC in the assay with Enterococcus faecium is 0.3 µg/mL (≈ 0.525 µM); in assay [1] it was below 0.04 µg/mL; with Staphylococcus aureus [2], 0.15 µg/mL (≈ 0.262 µM); with Staphylococcus aureus [3] it was 2.5 µg/mL (≈ 4.37 µM); with Staphylococcus aureus [4], below 0.04 µg/mL; in the assay on Streptococcus pyogenes it was below 0.04 µg/mL.
As for `CO[C@@H]1[C@@H](OC(=O)c2ccc(C)[nH]2)[C@@H](O)[C@H](Oc2ccc3c(C)c(CC(=O)O)c(=O)oc3c2C)O[C@H]1C`, the MIC against Enterococcus faecium was above 40 µg/mL; in assay [1], above 40 µg/mL; with Staphylococcus aureus [2] it was above 40 µg/mL; in the assay with Staphylococcus aureus [3] it was above 40 µg/mL; against Staphylococcus aureus [4] it was above 40 µg/mL; against Streptococcus pyogenes, 40 µg/mL (≈ 77.6 µM).
`CCCCCc1cc(O[C@@H]2O[C@@H](C)[C@H](OC)[C@@H](OC(=O)c3ccc(C)[nH]3)[C@H]2O)c(C)c2oc(=O)c(C(=O)O)cc12`: the MIC amounted to 2.5 µg/mL (≈ 4.48 µM) with Enterococcus faecium; 0.6 µg/mL (≈ 1.08 µM) in assay [1]; 2.5 µg/mL (≈ 4.48 µM) against Staphylococcus aureus [2]; 20 µg/mL (≈ 35.9 µM) against Staphylococcus aureus [3]; 0.6 µg/mL (≈ 1.08 µM) in the assay on Staphylococcus aureus [4]; 1.2 µg/mL (≈ 2.15 µM) with Streptococcus pyogenes.
Turning to `CO[C@@H]1[C@@H](OC(=O)c2ccc(C)[nH]2)[C@@H](O)[C@H](Oc2ccc3c(CC(=O)O)cc(=O)oc3c2)O[C@H]1C`, the MIC (in the assay with Enterococcus faecium; in assay [1]; against Staphylococcus aureus [2]; against Staphylococcus aureus [3]; in the assay on Staphylococcus aureus [4]; against Streptococcus pyogenes) was above 40 µg/mL throughout.
As to `CCCc1cc(O[C@@H]2O[C@@H](C)[C@H](OC)[C@@H](OC(=O)c3ccc(C)[nH]3)[C@H]2O)c(C)c2oc(=O)c(C(=O)O)cc12`, the MIC against Enterococcus faecium is above 40 µg/mL; in assay [1], 10 µg/mL (≈ 18.9 µM); against Staphylococcus aureus [2] it was 40 µg/mL (≈ 75.5 µM); in the assay on Staphylococcus aureus [3] it was above 40 µg/mL; against Staphylococcus aureus [4], 10 µg/mL (≈ 18.9 µM); against Streptococcus pyogenes, above 40 µg/mL.
Consider `CCCCCCCCCCCCc1cc(O[C@@H]2O[C@@H](C)[C@H](OC)[C@@H](OC(=O)c3ccc(C)[nH]3)[C@H]2O)c(C)c2oc(=O)c(C(=O)O)cc12`, for which the MIC in the assay on Enterococcus faecium is above 40 µg/mL; in assay [1], 40 µg/mL (≈ 61 µM); in the assay on Staphylococcus aureus [2] it was 5 µg/mL (≈ 7.62 µM); in the assay with Staphylococcus aureus [3], above 40 µg/mL; against Staphylococcus aureus [4], 0.08 µg/mL (≈ 0.122 µM); with Streptococcus pyogenes, 0.3 µg/mL (≈ 0.457 µM).
Turning to `CO[C@@H]1[C@@H](OC(=O)c2ccc(C)[nH]2)[C@@H](O)[C@H](Oc2cc(Cc3ccccc3)c3cc(C(=O)O)c(=O)oc3c2C)O[C@H]1C`, the MIC is 20 µg/mL (≈ 34.6 µM) in the assay with Enterococcus faecium; 2.5 µg/mL (≈ 4.33 µM) in assay [1]; 5 µg/mL (≈ 8.66 µM) with Staphylococcus aureus [2]; above 40 µg/mL against Staphylococcus aureus [3]; 2.5 µg/mL (≈ 4.33 µM) against Staphylococcus aureus [4]; 5 µg/mL (≈ 8.66 µM) against Streptococcus pyogenes.
Turning to `CO[C@@H]1[C@@H](OC(=O)c2ccc(C)[nH]2)[C@@H](O)[C@H](Oc2ccc3c(C)c(CCC(=O)O)c(=O)oc3c2C)O[C@H]1C`, the MIC was above 40 µg/mL in the assay on Enterococcus faecium; above 40 µg/mL in assay [1]; above 40 µg/mL against Staphylococcus aureus [2]; above 40 µg/mL against Staphylococcus aureus [3]; above 40 µg/mL with Staphylococcus aureus [4]; 40 µg/mL (≈ 75.5 µM) against Streptococcus pyogenes.
Turning to `CCCCCCCc1cc(O[C@@H]2O[C@@H](C)[C@H](OC)[C@@H](OC(=O)c3ccc(C)[nH]3)[C@H]2O)c(C)c2oc(=O)c(C(=O)O)cc12`, the MIC against Enterococcus faecium was found to be 0.6 µg/mL (≈ 1.02 µM); in assay [1], 0.3 µg/mL (≈ 0.512 µM); in the assay on Staphylococcus aureus [2] it was 0.3 µg/mL (≈ 0.512 µM); in the assay with Staphylococcus aureus [3], 5 µg/mL (≈ 8.54 µM); with Staphylococcus aureus [4], 0.08 µg/mL (≈ 0.137 µM); against Streptococcus pyogenes it was 0.3 µg/mL (≈ 0.512 µM).
For `CO[C@@H]1[C@@H](OC(=O)c2ccc(C)[nH]2)[C@@H](O)[C@H](Oc2ccc3cc(C(=O)O)c(=O)oc3c2C)O[C@H]1C`, the MIC was above 40 µg/mL in the assay with Enterococcus faecium; above 40 µg/mL in assay [1]; above 40 µg/mL in the assay on Staphylococcus aureus [2]; above 40 µg/mL in the assay on Staphylococcus aureus [3]; above 40 µg/mL against Staphylococcus aureus [4]; 40 µg/mL (≈ 82.1 µM) in the assay on Streptococcus pyogenes.
As to `CO[C@@H]1[C@@H](OC(=O)c2ccc(C)[nH]2)[C@@H](O)[C@H](Oc2ccc3c(O)c(NC(=O)c4ccc(O)c(CC=C(C)C)c4)c(=O)oc3c2Cl)OC1(C)C` [CHLOROBIOCIN], the MIC in assay [1] was below 0.04 µg/mL; against Staphylococcus aureus [2], below 0.04 µg/mL; in the assay with Staphylococcus aureus [3], 0.15 µg/mL (≈ 0.215 µM); against Staphylococcus aureus [4], below 0.04 µg/mL; in the assay with Streptococcus pyogenes, below 0.04 µg/mL.

Source of the values: ChEMBL document CHEMBL1132006, “Synthesis and biological evaluation of coumarincarboxylic acids as inhibitors of gyrase B. L-rhamnose as an effective substitute for L-noviose” (1999).
